Source: patent US10618903B2, “Heteroaryl substituted aminopyridine compounds” (BRISTOL-MYERS SQUIBB COMPANY, priority 2015, dated 2020)

How the values were obtained:
[1] = system: IL-6 levels in human whole blood stimulated with a TLR2 agonist; assay: IRAK4 Whole Blood Assay (lipoteichoic acid/TLR2-stimulated IL-6); assay type: cell-based; conditions: lipoteichoic acid 10 μg/mL, IL-6 readout
Experimental: Human whole blood containing the anti-coagulant ACD-A was plated in 384-well plate (25 μL/well) and incubated with compounds for 60 minutes at 37° C. in a 5% CO2 incubator. The blood was stimulated with a TLR2 agonist, 10 μg/mL final concentration of lipoteichoic acid (Invivogen, San Diego, Calif.) in 25 μL RPMI (Gibco) for 5 hours in a 5% CO2 incubator. At the end of the incubation, plates were centrifuged at 2300 rpm for 5 minutes. Supernatants were harvested and analyzed for IL-6 levels by Flow Cytometry beads assay (BD Biosciences, San Jose, Calif.).

[2] = biological target: IRAK4 (Homo sapiens (Human), UniProt Q9NWZ3); assay: IRAK4 Inhibition Assay; assay type: biochemical; conditions: ATP 500 μM; IRAK4 0.6 nM
IRAK4, sequence (Q9NWZ3 whole entry): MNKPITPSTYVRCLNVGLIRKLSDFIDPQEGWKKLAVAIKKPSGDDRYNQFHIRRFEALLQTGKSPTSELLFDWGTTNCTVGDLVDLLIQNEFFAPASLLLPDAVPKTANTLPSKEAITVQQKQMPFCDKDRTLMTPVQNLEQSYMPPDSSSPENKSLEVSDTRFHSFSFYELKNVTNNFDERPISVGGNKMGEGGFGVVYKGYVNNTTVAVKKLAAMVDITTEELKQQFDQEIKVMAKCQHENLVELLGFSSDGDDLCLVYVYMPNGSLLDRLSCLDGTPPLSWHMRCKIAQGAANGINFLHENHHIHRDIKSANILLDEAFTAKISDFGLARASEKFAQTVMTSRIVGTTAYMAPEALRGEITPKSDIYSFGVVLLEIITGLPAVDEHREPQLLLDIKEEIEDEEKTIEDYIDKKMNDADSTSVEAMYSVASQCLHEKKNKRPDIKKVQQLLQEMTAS
Experimental: The assays were performed in U-bottom 384-well plates. The final assay volume was 30 μL prepared from 15 μL additions of enzyme and substrates (fluoresceinated peptide and ATP) and test compounds in assay buffer (20 mM HEPES pH 7.2, 10 mM MgCl2, 0.015% Brij 35 and 4 mM DTT). The reaction was initiated by the combination of IRAK4 with substrates and test compounds. The reaction mixture was incubated at room temperature for 60 min. and terminated by adding 45 μL of 35 mM EDTA to each sample. The reaction mixture was analyzed on the Caliper LABCHIP® 3000 (Caliper, Hopkinton, Mass.) by electrophoretic separation of the fluorescent substrate and phosphorylated product. Inhibition data were calculated by comparison to no enzyme control reactions for 100% inhibition and vehicle-only reactions for 0% inhibition. The final concentrations of reagents in the assays are ATP, 500 μM; FL-IPTSPITTTYFFFKKK peptide 1.5 μM; IRAK4, 0.6 nM; and DMSO, 1.6%.

SMILES	EC50 ([1]; Homo sapiens) [nM]	IC50 [2] [nM]	EC50 [1] [nM]
CC(C)Nc1cc(-c2cnc3cc(C(F)F)cnn23)ncc1C(=O)NC[C@H](F)C(C)(C)O [Example 209, (S)-6-(7-(difluoromethyl)imidazo[1,2-b]pyridazin-3-yl)-N-(2-fluoro-3-hydroxy-3-methylbutyl)-4-(isopropylamino)nicotinamide]	610	4	–
CC(C)OC1CC(Nc2cc(-c3cnn4cc(Cl)cnc34)ncc2C(=O)NC[C@@H](F)C(C)(C)O)CC1(F)F (single isomer, unassigned) [Example 16]	–	6	1090
CC(C)(O)[C@H](F)CNC(=O)c1cnc(-c2cnn3cc(Cl)cnc23)cc1NC12CC(C1)C2 [Example 75, (R)-4-(bicyclo[1.1.1]pentan-1-ylamino)-6-(6-chloropyrazolo[1,5-a]pyrimidin-3-yl)-N-(2-fluoro-3-hydroxy-3-methylbutyl)nicotinamide]	1460	2	–
CC(C)(O)[C@H](F)CNC(=O)c1cnc(-c2cnn3cc(C#N)cnc23)cc1NC1CCCOC1 (single isomer, unassigned) [Example 94]	–	10	370
CC(C)Nc1cc(-c2cnn3cc(Cl)cnc23)ncc1C(=O)NC[C@@H](F)C(C)(C)OC(F)F [Example 157, (R)-6-(6-chloropyrazolo[1,5-a]pyrimidin-3-yl)-N-(3-(difluoromethoxy)-2-fluoro-3-methylbutyl)-4-(isopropylamino)nicotinamide]	930	3	–
CC(F)CCNc1cc(-c2cnn3cc(Cl)cnc23)ncc1C(=O)NC[C@@H](F)C(C)(C)O (stereo partly drawn) [Example 160, 6-(6-chloropyrazolo[1,5-a]pyrimidin-3-yl)-N—((R)-2-fluoro-3-hydroxy-3-methylbutyl)-4-((3-fluorobutyl)amino)nicotinamide]	810	6	–
CC(C)(O)[C@H]1CC[C@H](NC(=O)c2cnc(-c3cnn4cc(C#N)cnc34)cc2NC2COC2)CC1 [Example 120, 6-(6-cyanopyrazolo[1,5-a]pyrimidin-3-yl)-N-((1r,4r)-4-(2-hydroxypropan-2-yl)cyclohexyl)-4-(oxetan-3-ylamino)nicotinamide]	800	9	–
Cn1cc(Nc2cc(-c3cnc4cc(Cl)cnn34)ncc2C(=O)NC[C@@H](F)C(C)(C)O)cn1 [Example 271, (R)-6-(7-chloroimidazo[1,2-b]pyridazin-3-yl)-N-(2-fluoro-3-hydroxy-3-methylbutyl)-4-((1-methyl-1H-pyrazol-4-yl)amino)nicotinamide]	170	4	–
CC(C)(O)[C@H]1CC[C@H](NC(=O)c2cnc(-c3cnn4cc(Cl)cnc34)cc2Nc2cnn(C3CC3)c2)CC1 [Example 254, 6-(6-chloropyrazolo[1,5-a]pyrimidin-3-yl)-4-((1-cyclopropyl-1H-pyrazol-4-yl)amino)-N-((1r,4r)-4-(2-hydroxypropan-2-yl)cyclohexyl)nicotinamide]	470	2	–
Cn1cc(Nc2cc(-c3cnn4cc(Cl)cnc34)ncc2C(=O)N[C@H]2CC[C@H](C(C)(C)O)CC2)cn1 [Example 256, 6-(6-chloropyrazolo[1,5-a]pyrimidin-3-yl)-N-((1r,4r)-4-(2-hydroxypropan-2-yl)cyclohexyl)-4-((1-methyl-1H-pyrazol-4-yl)amino)nicotinamide]	790	3	–
CC(F)(F)Cn1ccc(Nc2cc(-c3cnc4cc(C#N)cnn34)ncc2C(=O)NC[C@@H](F)C(C)(C)O)n1 [Example 268, (R)-6-(7-cyanoimidazo[1,2-b]pyridazin-3-yl)-4-((1-(2,2-difluoropropyl)-1H-pyrazol-3-yl)amino)-N-(2-fluoro-3-hydroxy-3-methylbutyl)nicotinamide]	960	3	–
CC(C)(O)[C@H](F)CNC(=O)c1cnc(-c2cnc3cc(C#N)cnn23)cc1NCCC(F)F [Example 211, (R)-6-(7-cyanoimidazo[1,2-b]pyridazin-3-yl)-4-((3,3-difluoropropyl)amino)-N-(2-fluoro-3-hydroxy-3-methylbutyl)nicotinamide]	940	2	–
CC(C)(CO)Nc1cc(-c2cnn3cc(C#N)cnc23)ncc1C(=O)NC[C@@H](F)C(C)(C)O [Example 114, (R)-6-(6-cyanopyrazolo[1,5-a]pyrimidin-3-yl)-N-(2-fluoro-3-hydroxy-3-methylbutyl)-4-((1-hydroxy-2-methylpropan-2-yl)amino)nicotinamide]	480	3	–
COC(=O)N[C@H]1CC[C@H](NC(=O)c2cnc(-c3cnc4cc(C#N)cnn34)cc2NC2(C)CC2)CC1 [Example 224, methyl ((1r,4r)-4-(6-(7-cyanoimidazo[1,2-b]pyridazin-3-yl)-4-((1-methylcyclopropyl)amino)nicotinamido)cyclohexyl)carbamate]	570	7	–
CC(C)Nc1cc(-c2ccc3cc(C#N)cnn23)ncc1C(=O)NC[C@@H](F)C(C)(C)O [Example 193, (R)-6-(3-cyanopyrrolo[1,2-b]pyridazin-7-yl)-N-(2-fluoro-3-hydroxy-3-methylbutyl)-4-(isopropylamino)nicotinamide]	260	4	–
CC(C)Nc1cc(-c2cnc3cc(C#N)cnn23)ncc1C(=O)NCC(F)C1CC(C)OC(C)C1 (single isomer, unassigned) [Example 176, 6-(7-cyanoimidazo[1,2-b]pyridazin-3-yl)-N-(2-(2,6-dimethyltetrahydro-2H-pyran-4-yl)-2-fluoroethyl)-4-(isopropylamino)nicotinamide]	540	3	–
CC(C)(C)Nc1cc(-c2cnc3cc(C#N)cnn23)ncc1C(=O)NC[C@@H](F)C(C)(C)O [Example 187, (R)-4-(tert-butylamino)-6-(7-cyanoimidazo[1,2-b]pyridazin-3-yl)-N-(2-fluoro-3-hydroxy-3-methylbutyl)nicotinamide]	200	–	–
COC(C)(C)[C@H]1CC[C@H](NC(=O)c2cnc(-c3cnc4cc(Cl)cnn34)cc2NC2COC2)CC1 [Example 191, 6-(7-chloroimidazo[1,2-b]pyridazin-3-yl)-N-((1r,4r)-4-(2-methoxypropan-2-yl)cyclohexyl)-4-(oxetan-3-ylamino)nicotinamide]	630	–	–
CC(C)(O)[C@H](F)CNC(=O)c1cnc(-c2cnn3cc(C#N)cnc23)cc1Nc1ccn(CC(F)F)c1 [Example 225, (R)-6-(6-cyanopyrazolo[1,5-a]pyrimidin-3-yl)-4-((1-(2,2-difluoroethyl)-1H-pyrrol-3-yl)amino)-N-(2-fluoro-3-hydroxy-3-methylbutyl)nicotinamide]	80	–	–
CC(C)(O)[C@H](F)CNC(=O)c1cnc(-c2cnn3cc(C#N)cnc23)cc1Nc1ccc(C(N)=O)cc1 [Example 112, (R)-4-((4-carbamoylphenyl)amino)-6-(6-cyanopyrazolo[1,5-a]pyrimidin-3-yl)-N-(2-fluoro-3-hydroxy-3-methylbutyl)nicotinamide]	820	–	–
CC(C)(O)[C@H](F)CNC(=O)c1cnc(-c2cnn3cc(Cl)cnc23)cc1Nc1ccn(CC(F)F)c1 [Example 228, (R)-6-(6-chloropyrazolo[1,5-a]pyrimidin-3-yl)-4-((1-(2,2-difluoroethyl)-1H-pyrrol-3-yl)amino)-N-(2-fluoro-3-hydroxy-3-methylbutyl)nicotinamide]	250	–	–
CC(C)(O)[C@H](F)CNC(=O)c1cnc(-c2cnc3cccnn23)cc1NC1COC1 [Example 131, (R)—N-(2-fluoro-3-hydroxy-3-methylbutyl)-6-(imidazo[1,2-b]pyridazin-3-yl)-4-(oxetan-3-ylamino)nicotinamide]	–	13	–
CC(C)(O)[C@H](F)CNC(=O)c1cnc(-c2cnn3cc(C#N)cnc23)cc1N[C@H]1COC[C@@H]1F (single isomer, unassigned) [Example 116]	–	21	–
CC(C)(C)Nc1cc(-c2cnn3cc(Cl)cnc23)ncc1C(=O)NC[C@@H](F)C(C)(C)O [Example 72, (R)-4-(tert-butylamino)-6-(6-chloropyrazolo[1,5-a]pyrimidin-3-yl)-N-(2-fluoro-3-hydroxy-3-methylbutyl) nicotinamide]	–	2	–
CO[C@H]1CC[C@H](NC(=O)c2cnc(-c3cnn4cc(Cl)cnc34)cc2NC(C)C)CC1 [Example 11, 6-(6-chloropyrazolo[1,5-a]pyrimidin-3-yl)-4-(isopropylamino)-N-((1R,4R)-4-methoxycyclohexyl)nicotinamide]	–	14	–
CC(C)Nc1cc(-c2cnn3cc(Cl)cnc23)ncc1C(=O)NC1CCN(S(=O)(=O)C(C)C)CC1 [Example 74, 6-(6-chloropyrazolo[1,5-a]pyrimidin-3-yl)-4-(isopropylamino)-N-(1-(isopropylsulfonyl)piperidin-4-yl)nicotinamide]	–	26	–
CC(C)(O)CNc1cc(-c2cnc3cccnn23)ncc1C(=O)NC[C@@H](F)C(C)(C)O [Example 138, (R)—N-(2-fluoro-3-hydroxy-3-methylbutyl)-4-((2-hydroxy-2-methylpropyl)amino)-6-(imidazo[1,2-b]pyridazin-3-yl)nicotinamide]	–	62	–
